Values after ≈ are worked out from the molar mass of the structure shown.
Test system: Mycobacterium tuberculosis
Assay: Antimycobacterial activity against Mycobacterium tuberculosis H37Rv by agar dilution method
Type: functional

| Structure (SMILES) | MIC [µM] |
| --- | --- |
| CCOc1nc(-c2ccc([N+](=O)[O-])cc2)c(SC2CCCCC2)c(-c2ccc(N(C)C)cc2)c1C#N | 12.5 (≈ 6.28 µg/mL) |
| COc1nc(-c2ccc(Cl)cc2)c(SC2CCCCC2)c(-c2ccc(C)cc2)c1C#N | 28 (≈ 12.6 µg/mL) |
| CCOc1nc(-c2ccc(Cl)cc2)c(Sc2ccc(C)cc2)c(-c2ccc(Cl)cc2)c1C#N | 25.5 (≈ 12.5 µg/mL) |
| COc1nc(-c2ccc(Cl)cc2)c(Sc2ccc(Cl)cc2)c(-c2ccccc2)c1C#N | 27.1 (≈ 12.6 µg/mL) |
| COc1nc(-c2ccccc2)c(Sc2ccc(Cl)cc2)c(-c2ccc(Cl)cc2)c1C#N | 27 (≈ 12.5 µg/mL) |
| COc1nc(-c2ccc(Cl)cc2)c(Sc2ccc(Cl)cc2)c(-c2ccc(N(C)C)cc2)c1C#N | 12.4 (≈ 6.28 µg/mL) |
| COc1nc(-c2ccc(Cl)cc2)c(SC2CCCCC2)c(-c2ccccc2Cl)c1C#N | 13.3 (≈ 6.24 µg/mL) |
| CCOc1nc(-c2ccc(Cl)cc2)c(Sc2ccccc2)c(-c2ccc(Cl)cc2)c1C#N | 26.2 (≈ 12.5 µg/mL) |
| CCOc1nc(-c2ccc([N+](=O)[O-])cc2)c(SC2CCCCC2)c(-c2ccccc2)c1C#N | 6.8 (≈ 3.13 µg/mL) |
| NNC(=O)c1ccncc1 [ISONIAZID] | 0.4 (≈ 0.0549 µg/mL) |
| COc1nc(-c2ccc(Cl)cc2)c(SC2CCCCC2)c(-c2ccc(N(C)C)cc2)c1C#N | 13.1 (≈ 6.26 µg/mL) |
| CCOc1nc(-c2ccc(Cl)cc2)c(SC2CCCCC2)c(-c2ccc(N(C)C)cc2)c1C#N | 25.4 (≈ 12.5 µg/mL) |
| NC(=O)c1cnccn1 [PYRAZINAMIDE] | 50.8 (≈ 6.25 µg/mL) |
| CCOc1nc(-c2ccc(Cl)cc2)c(Sc2ccc(C)cc2)c(-c2ccccc2)c1C#N | 54.8 (≈ 25 µg/mL) |
| CCOc1nc(-c2ccc(Cl)cc2)c(SC2CCCCC2)c(-c2ccc(Cl)cc2)c1C#N | 6.5 (≈ 3.14 µg/mL) |
| CCOc1nc(-c2ccc(Cl)cc2)c(SC2CCCCC2)c(-c2ccc(C)cc2)c1C#N | 27 (≈ 12.5 µg/mL) |
| CCOc1nc(-c2ccccc2)c(SC2CCCCC2)c(-c2ccccc2)c1C#N | 25 (≈ 10.4 µg/mL) |

| Structure (SMILES) | MIC [µM] |
| --- | --- |
| COc1nc(-c2ccc(Cl)cc2)c(SC2CCCCC2)c(-c2ccc(Cl)cc2)c1C#N | 13.3 (≈ 6.24 µg/mL) |
| CCOc1nc(-c2ccc(Cl)cc2)c(Sc2ccc(C)cc2)c(-c2ccc(OC)cc2)c1C#N | 51.3 (≈ 25 µg/mL) |
| CCOc1nc(-c2ccc(Cl)cc2)c(Sc2ccccc2)c(-c2ccc(N(C)C)cc2)c1C#N | > 51.4 |
| CC[C@@H](CO)NCCN[C@@H](CC)CO [ETHAMBUTOL] | 7.6 (≈ 1.55 µg/mL) |
| CCOc1nc(-c2ccc(C)cc2)c(SC2CCCCC2)c(-c2ccc(N(C)C)cc2)c1C#N | 26.5 (≈ 12.5 µg/mL) |
| COc1nc(-c2ccc(Cl)cc2)c(SC2CCCCC2)c(-c2ccccc2)c1C#N | 57.6 (≈ 25.1 µg/mL) |
| CCOc1nc(-c2ccc(Cl)cc2)c(Sc2ccc(OC)cc2)c(-c2ccc(N(C)C)cc2)c1C#N | 48.5 (≈ 25 µg/mL) |
| CCOc1nc(-c2ccc(Cl)cc2)c(Sc2ccc(Cl)cc2)c(-c2ccccc2)c1C#N | 13.1 (≈ 6.25 µg/mL) |
| COc1nc(-c2ccccc2)c(Sc2ccc(Cl)cc2)c(-c2ccc(N(C)C)cc2)c1C#N | 26.5 (≈ 12.5 µg/mL) |
| COc1ccc(-c2c(C#N)c(OC)nc(-c3ccc(Cl)cc3)c2Sc2ccc(Cl)cc2)cc1 | 25.4 (≈ 12.5 µg/mL) |
| COc1ccc(-c2c(C#N)c(OC)nc(-c3ccc(Cl)cc3)c2SC2CCCCC2)cc1 | 26.9 (≈ 12.5 µg/mL) |
| COc1nc(-c2ccc(Cl)cc2)c(Sc2ccc(Cl)cc2)c(-c2ccc(Cl)cc2)c1C#N | 3.1 (≈ 1.54 µg/mL) |
| CCOc1nc(-c2ccc(Cl)cc2)c(Sc2ccc(C)cc2)c(-c2ccc(N(C)C)cc2)c1C#N | > 50 |
| CCOc1nc(-c2ccc(OC)cc2)c(Sc2ccc(Cl)cc2)c(-c2ccc(N(C)C)cc2)c1C#N | 24.2 (≈ 12.5 µg/mL) |
| CCOc1nc(-c2ccc(Cl)cc2)c(SC2CCCCC2)c(-c2ccccc2)c1C#N | 27.8 (≈ 12.5 µg/mL) |
| CCOc1nc(-c2ccc(Br)cc2)c(Sc2ccc(Cl)cc2)c(-c2ccc(N(C)C)cc2)c1C#N | 5.6 (≈ 3.16 µg/mL) |

— ChEMBL document CHEMBL1155480, “Selective one-pot multicomponent synthesis and anti-tubercular evaluation of 5-(aryl/cyclohexylsulfanyl)-2-alkoxy-4,6-diarylnicotinonitriles” (2010)
